Values joined by “and” are separate entries in the source; they are usually repeats but may differ in a detail not shown here. Equal values may be shown once.
Organism: Rattus norvegicus
Assay: DrugMatrix - Regimen: Daily Repeat
Format: toxicity, organism-based, Sprague-Dawley
Set-up: regimen Daily Repeat, gender Male, age 6-8 weeks
Conditions: in vivo; for ABSOLUTE BASOPHIL / ABSOLUTE EOSINOPHIL / ABSOLUTE LYMPHOCYTE / ABSOLUTE MONOCYTE / ABSOLUTE SEGMENTED NEUTROPHIL / HEMOGLOBIN / MEAN CORPUSCULAR HEMOGLOBIN / MEAN CORPUSCULAR VOLUME / BASOPHIL / EOSINOPHIL / ERYTHROCYTE COUNT / HEMATOCRIT / LEUKOCYTE COUNT / LYMPHOCYTE / MEAN CORPUSCULAR HEMOGLOBIN CONCENTRATION / MONOCYTE / NEUTROPHIL / PLATELET COUNT / NUCLEATED RED BLOOD CELLS: tissue Blood
[1] = ip, 40 mg/kg, 120 h, tissue Plasma, route intraperitoneal, dose level High, time 5 day, vehicle 100 % SALINE
[2] = ip, 40 mg/kg, […], route intraperitoneal, dose level High, time 14 day, vehicle 100 % SALINE
[3] = ip, 40 mg/kg, […], route intraperitoneal, dose level High, time 28 day, vehicle 100 % SALINE
[4] = ip, 40 mg/kg, […], tissue Plasma, route intraperitoneal, dose level High, time 14 day, vehicle 100 % SALINE
[5] = ip, 40 mg/kg, […], tissue Plasma, route intraperitoneal, dose level High, time 28 day, vehicle 100 % SALINE
[6] = sc, 34 mg/kg, 72 h, route subcutaneous, dose level Low, time 3 day, […]
[7] = sc, 34 mg/kg, 72 h, tissue Plasma, route subcutaneous, dose level Low, time 3 day, […]
[8] = sc, 34 mg/kg, 120 h, route subcutaneous, dose level Low, time 5 day, […]
[9] = sc, 34 mg/kg, 120 h, tissue Plasma, route subcutaneous, dose level Low, time 5 day, […]

GENTAMICIN
LIPASE [1]: 13.6 u/L and 7.25 u/L | PHOSPHORUS [1]: 12.05 mg/dL | POTASSIUM [1]: 5.95 MEQ/L | SODIUM [1]: 150.75 MEQ/L | TOTAL BILIRUBIN [1]: 0.18 mg/dL and 0.33 mg/dL | TOTAL PROTEIN [1]: 5.74 G/DL and 6.48 G/DL | URIC ACID [1]: 0.96 mg/dL | ABSOLUTE BASOPHIL [2]: 72 cells/µL | ABSOLUTE EOSINOPHIL [2]: 92 cells/µL | ABSOLUTE LYMPHOCYTE [2]: 8980 cells/µL | ABSOLUTE MONOCYTE [2]: 190 cells/µL | ABSOLUTE SEGMENTED NEUTROPHIL [2]: 1000 cells/µL | HEMOGLOBIN [2]: 15.3 G/DL | MEAN CORPUSCULAR HEMOGLOBIN [2]: 19.4 pg | MEAN CORPUSCULAR VOLUME [2]: 59.54 fL | ABSOLUTE BASOPHIL [3]: 99 cells/µL | ABSOLUTE EOSINOPHIL [3]: 110 cells/µL | ABSOLUTE LYMPHOCYTE [3]: 11600 cells/µL | ABSOLUTE MONOCYTE [3]: 260 cells/µL | ABSOLUTE SEGMENTED NEUTROPHIL [3]: 1950 cells/µL | BASOPHIL [3]: 0.7% | EOSINOPHIL [3]: 0.81% | ERYTHROCYTE COUNT [3]: 8.29 x10E6/uL | HEMATOCRIT [3]: 46.05% | HEMOGLOBIN [3]: 15.27 G/DL | LEUKOCYTE COUNT [3]: 14.13 x10E3/uL | LYMPHOCYTE [3]: 82.22% | MEAN CORPUSCULAR HEMOGLOBIN [3]: 18.44 pg | MEAN CORPUSCULAR HEMOGLOBIN CONCENTRATION [3]: 33.17 G/DL | MEAN CORPUSCULAR VOLUME [3]: 55.59 fL | MONOCYTE [3]: 1.82% | NEUTROPHIL [3]: 14.01% | PLATELET COUNT [3]: 1416.3 x10E3/uL | CARBON DIOXIDE [4]: 25.75 mmol/L | CHLORIDE [4]: 107 MEQ/L | SODIUM [4]: 150 MEQ/L | ALANINE AMINOTRANSFERASE [5]: 32.3 u/L | ALBUMIN [5]: 3.62 G/DL | ALKALINE PHOSPHATASE [5]: 139.3 u/L | ASPARTATE AMINOTRANSFERASE [5]: 96 u/L | BLOOD UREA NITROGEN [5]: 14.9 mg/dL | CHOLESTEROL [5]: 65.3 mg/dL | CREATINE PHOSPHOKINASE [5]: 320.4 u/L | CREATININE [5]: 0.65 mg/dL | LACTATE DEHYDROGENASE [5]: 119.4 u/L | LIPASE [5]: 11 u/L | PHOSPHORUS [5]: 9.46 mg/dL | POTASSIUM [5]: 6.33 MEQ/L | TOTAL BILIRUBIN [5]: 0.17 mg/dL | TOTAL PROTEIN [5]: 6.66 G/DL | URIC ACID [5]: 1.24 mg/dL | ABSOLUTE BASOPHIL [6]: 0 CELLS/uL | ABSOLUTE EOSINOPHIL [6]: 60.67 CELLS/uL | ABSOLUTE LYMPHOCYTE [6]: 14515.67 CELLS/uL | ABSOLUTE MONOCYTE [6]: 63 CELLS/uL | ABSOLUTE SEGMENTED NEUTROPHIL [6]: 1227.33 CELLS/uL | BASOPHIL [6]: 0% | EOSINOPHIL [6]: 0.33% | ERYTHROCYTE COUNT [6]: 5.19 x10E6/uL | HEMATOCRIT [6]: 32.97% | HEMOGLOBIN [6]: 12.73 G/DL | LEUKOCYTE COUNT [6]: 15.87 x10E3/uL | LYMPHOCYTE [6]: 91.67% | MEAN CORPUSCULAR HEMOGLOBIN [6]: 24.57 pg | MEAN CORPUSCULAR HEMOGLOBIN CONCENTRATION [6]: 38.63 G/DL | MEAN CORPUSCULAR VOLUME [6]: 63.57 fL | MONOCYTE [6]: 0.33% | NEUTROPHIL [6]: 7.67% | NUCLEATED RED BLOOD CELLS [6]: 0 /100WBC | PLATELET COUNT [6]: 1222.33 x10E3/uL | ALANINE AMINOTRANSFERASE [7]: 55.67 u/L | ALBUMIN [7]: 4 G/DL | ALKALINE PHOSPHATASE [7]: 327 u/L | ASPARTATE AMINOTRANSFERASE [7]: 105 u/L | BLOOD UREA NITROGEN [7]: 14.67 mg/dL | CARBON DIOXIDE [7]: 20.67 mmol/L | CHLORIDE [7]: 107.33 MEQ/L | CHOLESTEROL [7]: 82 mg/dL | CREATINE PHOSPHOKINASE [7]: 574.67 u/L | CREATININE [7]: 0.29 mg/dL | GLUCOSE [7]: 196.33 mg/dL | LACTATE DEHYDROGENASE [7]: 268.67 u/L | LIPASE [7]: 11.33 u/L | POTASSIUM [7]: 6.59 MEQ/L | SODIUM [7]: 147.27 MEQ/L | TOTAL BILIRUBIN [7]: 0.2 mg/dL | TOTAL PROTEIN [7]: 5.7 G/DL | ABSOLUTE BASOPHIL [8]: 0 CELLS/uL | ABSOLUTE EOSINOPHIL [8]: 0 CELLS/uL | ABSOLUTE LYMPHOCYTE [8]: 14029.67 CELLS/uL | ABSOLUTE MONOCYTE [8]: 90.67 CELLS/uL | ABSOLUTE SEGMENTED NEUTROPHIL [8]: 1246.33 CELLS/uL | BASOPHIL [8]: 0% | EOSINOPHIL [8]: 0% | ERYTHROCYTE COUNT [8]: 5.74 x10E6/uL | HEMOGLOBIN [8]: 13.5 G/DL | LEUKOCYTE COUNT [8]: 15.37 x10E3/uL | LYMPHOCYTE [8]: 91% | MEAN CORPUSCULAR HEMOGLOBIN [8]: 23.57 pg | MEAN CORPUSCULAR HEMOGLOBIN CONCENTRATION [8]: 36.03 G/DL | MONOCYTE [8]: 0.67% | NEUTROPHIL [8]: 8.33% | NUCLEATED RED BLOOD CELLS [8]: 0 /100WBC | PLATELET COUNT [8]: 1310.33 x10E3/uL | ALANINE AMINOTRANSFERASE [9]: 46.33 u/L | ALBUMIN [9]: 4.2 G/DL | ALKALINE PHOSPHATASE [9]: 391.33 u/L | ASPARTATE AMINOTRANSFERASE [9]: 95.33 u/L | CARBON DIOXIDE [9]: 24 mmol/L | CHLORIDE [9]: 106.67 MEQ/L | CHOLESTEROL [9]: 71 mg/dL | CREATINE PHOSPHOKINASE [9]: 308.33 u/L | CREATININE [9]: 0.18 mg/dL | LACTATE DEHYDROGENASE [9]: 196.33 u/L | PHOSPHORUS [9]: 13.37 mg/dL | POTASSIUM [9]: 7.64 MEQ/L | TOTAL BILIRUBIN [9]: 0.2 mg/dL
